The values that follow come from publication PMC6792352, “Limited Chemical Structural Diversity Found to Modulate Thyroid Hormone Receptor in the Tox21 Chemical Library” (Environmental Health Perspectives, 2019).

One data set in a line: in vitro. The conditions noted are these: rat, gh3-tre-luc cells, AC50 (uM) modified / 1000.
As for `CCO[Si](CCCNC(N)=O)(OCC)OCC` [1-[3-(Triethoxysilyl)propyl]urea], the CC50 at 24 h is > 90 µM.
On to `C=C1/C(=C\C=C2/CCC[C@]3(C)[C@@H]([C@H](C)/C=C/[C@H](C)C(C)C)CC[C@@H]23)C[C@@H](O)C[C@@H]1O` [1-alpha-Hydroxyergocalciferol], for which the CC50 at 24 h was determined as 37.5 µM.
For the molecule `CCCCCCCCCCCCCCCCI` [1-iodohexadecane], the CC50 at 24 h was > 20 µM.
On the same count and under the same terms, the value for `CC(O)COC(C)(C)C` (stereo not shown) [1-tert-Butoxy-2-propanol] was > 90 µM; that for `Cc1c(C)c([N+](=O)[O-])c(C(C)(C)C)c([N+](=O)[O-])c1C` [1-tert-Butyl-3,4,5-trimethyl-2,6-dinitrobenzene] was 73.9 µM; that for `CC(O)CN(CCCN(C)C)CCCN(C)C` (stereo not shown) [1-{Bis[3-(dimethylamino)propyl]amino}propan-2-ol] was > 90 µM.
As for `FC(F)(F)C(F)(F)C(F)(F)C(F)(F)C(F)(F)C(F)(F)CCI` [1H,1H,2H,2H-Perfluorooctyl iodide], the CC50 at 24 h was > 50 µM.
As for `O=c1oc(=O)c2cc3c(=O)oc(=O)c3cc12` [1H,3H-Benzo(1,2-c:4,5-c')difuran-1,3,5,7-tetrone], the CC50 at 24 h is > 90 µM.
On to `O=C1OC(=O)c2cccc3cccc1c23` [1H,3H-Naphtho(1,8-cd)pyran-1,3-dione], for which the CC50 at 24 h is > 90 µM.
For `O=C1NC(=O)c2cccc3cccc1c23` [1H-Benzo[de]isoquinoline-1,3(2H)-dione], the CC50 at 24 h is > 90 µM.
Consider `N=C1N=C(N)c2ccccc21` [1H-Isoindole-1,3(2H)-diimine], for which the CC50 at 24 h was determined as 35.8 µM.
For `CC(=O)c1ccc(Cl)c(Cl)c1Cl` [2',3',4'-Trichloroacetophenone], the CC50 at 24 h is > 90 µM.
Take `Nc1ncnc2c1ncn2[C@H]1CC[C@@H](CO)O1` [2',3'-Dideoxyadenosine]: the half-maximal cytotoxic concentration (CC50) at 24 h is > 90 µM.
Still for that read-out and setting: the value for `Nc1ccn([C@H]2CC[C@@H](CO)O2)c(=O)n1` [2',3'-Dideoxycytidine] was > 50 µM; that for `O=C1OC2(c3ccccc31)c1cc(Br)c(O)c(Br)c1Oc1c2cc(Br)c(O)c1Br` [2',4',5',7'-Tetrabromofluorescein] was 5.55 µM; that for `CCCC(=O)c1cc(O)c(O)cc1O` [2',4',5'-Trihydroxybutyrophenone] was > 90 µM.
Regarding `CC(=O)c1ccc2ccccc2c1` [2'-Acetonaphthone], the CC50 at 24 h was > 90 µM.
With `OCCN(CCO)CCN(CCO)CCO` [2,2',2'',2'''-(1,2-Ethanediyldinitrilo)tetrakisethanol], the CC50 at 24 h was > 90 µM.
As for `c1cc(C(c2ccc(OCC3CO3)cc2)c2ccc(OCC3CO3)cc2)ccc1OCC1CO1` (stereo not shown) [2,2',2''-[Methanetriyltris(benzene-4,1-diyloxymethanediyl)]trioxirane], the CC50 at 24 h was 19.4 µM.
For `Brc1cc(Br)c(Oc2cc(Br)c(Br)cc2Br)cc1Br` [2,2',4,4',5,5'-Hexabromodiphenyl ether], the half-maximal cytotoxic concentration (CC50) at 24 h is > 50 µM.
Same read-out and setting: as for `O=C(c1ccc(O)cc1O)c1ccc(O)cc1O` [2,2',4,4'-Tetrahydroxybenzophenone], the figure is > 90 µM; as for `Nc1cc(Cl)c(-c2cc(Cl)c(N)cc2Cl)cc1Cl` [2,2',5,5'-Tetrachlorobenzidine], 13.7 µM.
On to `OCCN(CCO)c1cccc(Cl)c1` [2,2'-(3-Chlorophenylimino)diethanol], for which the CC50 at 24 h is > 90 µM.
With `CCC(CO)(CO)COCC(CC)(CO)CO` [2,2'-(Oxydimethanediyl)bis(2-ethylpropane-1,3-diol)], the CC50 at 24 h is > 90 µM.
Still for that read-out and setting: the value for `CCCCCCCCCCCCCCN(CCO)CCO` [2,2'-(Tetradecylimino)diethanol] was 23.3 µM; that for `CC(C)(C)N(CCO)CCO` [2,2'-(tert-Butylimino)diethanol] was > 90 µM; that for `c1ccc(-c2ccccn2)nc1` [2,2'-Bipyridine] was > 90 µM.
In the case of `Oc1ccccc1Cc1ccccc1O` [2,2'-Bisphenol F], the CC50 at 24 h was > 90 µM.
On to `COc1ccc(C(=O)c2ccc(OC)cc2O)c(O)c1` [2,2'-Dihydroxy-4,4'-dimethoxybenzophenone], for which the CC50 at 24 h was > 90 µM.
On to `O=C(c1ccccc1O)c1ccccc1O` [2,2'-Dihydroxybenzophenone], for which the CC50 at 24 h is > 90 µM.
Still for that read-out and setting: as for `c1ccc2sc(SSc3nc4ccccc4s3)nc2c1` [2,2'-Dithiobisbenzothiazole], the figure is > 50 µM; as for `CCc1cc(Cc2cc(CC)cc(C(C)(C)C)c2O)c(O)c(C(C)(C)C)c1` [2,2'-Methylenebis(ethyl-6-tert-butylphenol)], 7.35 µM; as for `NCCOCCN` [2,2'-Oxybis(ethylamine)], > 90 µM.
As to `SCCSCCS` [2,2'-Sulfanediyldiethanethiol], the CC50 at 24 h is > 90 µM.
`OCCOc1ccc(OCCO)cc1` [2,2'-[1,4-Phenylenebis(oxy)]diethanol]: the CC50 at 24 h was > 90 µM.
`NCCCN(CCO)CCO` [2,2'-[(3-Aminopropyl)imino]diethanol]: the CC50 at 24 h is > 90 µM.
Consider `Cc1ccc(N(CCO)CCO)cc1` [2,2'-[(4-Methylphenyl)imino]diethanol], for which the CC50 at 24 h is > 90 µM.
Same read-out and setting: as for `OCCOc1cccc(OCCO)c1` [2,2'-[Benzene-1,3-diylbis(oxy)]diethanol], the figure is > 90 µM; as for `C1CC(COCC2CO2)CCC1COCC1CO1` (stereo not shown) [2,2'-[Cyclohexane-1,4-diylbis(methanediyloxymethanediyl)]dioxirane], 59.2 µM.
Regarding `NCCOCCOCCN` [2,2'-[Ethane-1,2-diylbis(oxy)]diethanamine], the CC50 at 24 h is > 90 µM.
On to `SCCOCCOCCS` [2,2'-[Ethane-1,2-diylbis(oxy)]diethanethiol], for which the CC50 at 24 h is > 90 µM.
With `CC(=O)OC(c1ccccc1)C(Cl)(Cl)Cl` (stereo not shown) [2,2,2-Trichloro-1-phenylethyl acetate], the CC50 at 24 h is > 90 µM.
Take `NC(=O)C(Cl)(Cl)Cl` [2,2,2-Trichloroacetamide]: the CC50 at 24 h was > 90 µM.
Consider `OCC(F)(F)F` [2,2,2-Trifluoroethanol], for which the CC50 at 24 h is > 100 µM.
On to `C[Si]1(C)N[Si](C)(C)N[Si](C)(C)N1` [2,2,4,4,6,6-Hexamethyl-1,3,5,2,4,6-triazatrisilinane], for which the CC50 at 24 h was > 90 µM.
Turning to `CC1(C)C(O)C(C)(C)C1O` (stereo not shown) [2,2,4,4-Tetramethylcyclobutane-1,3-diol], the CC50 at 24 h is > 90 µM.
As for `CC1(C)C(=O)C(C)(C)C1=O` [2,2,4,4-Tetramethylcyclobutane-1,3-dione], the CC50 at 24 h is > 90 µM.
Turning to `CC(C)C(=O)OCC(C)(C)C(OC(=O)C(C)C)C(C)C` (stereo not shown) [2,2,4-Trimethyl-1,3-pentanediol diisobutyrate], the CC50 at 24 h is > 90 µM.
Take `CC(C)C(O)C(C)(C)CO` (stereo not shown) [2,2,4-Trimethyl-1,3-pentanediol]: the CC50 at 24 h is > 90 µM.
The molecule `CC(C)C(OC(=O)c1ccccc1)C(C)(C)COC(=O)c1ccccc1` (stereo not shown) [2,2,4-Trimethylpentane-1,3-diyl dibenzoate] displayed a CC50 at 24 h of 76 µM.
As for `CC(C)CC(C)(C)C` [2,2,4-Trimethylpentane], the CC50 at 24 h is > 100 µM.
In the case of `CC1(C)CC(O)CC(C)(C)N1` [2,2,6,6-Tetramethyl-4-piperidinol], the CC50 at 24 h was > 90 µM.
As for `CC1(C)CC(=O)CC(C)(C)N1` [2,2,6,6-Tetramethyl-4-piperidone], the CC50 at 24 h is > 90 µM.
For `CC1(C)CC(N)CC(C)(C)N1` [2,2,6,6-Tetramethylpiperidin-4-amine], the CC50 at 24 h is > 90 µM.
As to `CC(C)(c1ccc(Oc2ccc3c(c2)C(=O)OC3=O)cc1)c1ccc(Oc2ccc3c(c2)C(=O)OC3=O)cc1` [2,2-Bis(4-(3,4-dicarboxyphenoxy)phenyl)propane dianhydride], the CC50 at 24 h is > 90 µM.
Turning to `O=C(OCC(COC(=O)c1ccccc1)(COC(=O)c1ccccc1)COC(=O)c1ccccc1)c1ccccc1` [2,2-Bis[(benzoyloxy)methyl]dibenzoate propanediol], the CC50 at 24 h is > 90 µM.
The same measure, in the same setting: as for `C=CCOCC(CC)(CO)COCC=C` [2,2-Bis[(prop-2-en-1-yloxy)methyl]butan-1-ol], the figure is > 90 µM.
With `CCC(COC(=O)CCS)(COC(=O)CCS)COC(=O)CCS` [2,2-Bis{[(3-sulfanylpropanoyl)oxy]methyl}butyl 3-sulfanylpropanoate], the CC50 at 24 h is > 90 µM.
In the case of `Cc1ccc(C(C)(C)c2ccc(C)cc2)cc1` [2,2-Di-4-tolylpropane], the CC50 at 24 h was > 50 µM.
On to `N#CC(Br)(Br)C(N)=O` [2,2-Dibromo-3-nitrilopropionamide], for which the 50% cytotoxic concentration (CC50) at 24 h is > 90 µM.

Staying with this data set, now noted: rat, gh3-tre-luc cells, AC50 (uM) modified / 1000, Tox21_110001=Tox21_200156; viability, 1 nM T3 present, 24 h.
With `Brc1ccc(Oc2cc(Br)c(Br)cc2Br)c(Br)c1` [2,2',4,4',5-Pentabromodiphenyl ether], the CC50 at 24 h was > 90 µM.

The data set is the same for the next values; noted with them: rat, gh3-tre-luc cells, AC50 (uM) modified / 1000, Tox21_110001=Tox21_200327; viability, 1 nM T3 present, 24 h.
`Brc1ccc(Oc2ccc(Br)cc2Br)c(Br)c1` [2,2'4,4'-Tetrabromodiphenyl ether] registered a CC50 at 24 h of 83.3 µM.

The same data set, now with this note: rat, gh3-tre-luc cells, AC50 (uM) modified / 1000, Tox21_110001=Tox21_202244; viability, 1 nM T3 present, 24 h.
As to `Clc1ccccc1-c1ccccc1Cl` [2,2'-Dichlorobiphenyl], the CC50 at 24 h was > 100 µM.

The data set is the same for the next values; noted with them: rat, gh3-tre-luc cells, AC50 (uM) modified / 1000, Tox21_110001=Tox21_202470; viability, 1 nM T3 present, 24 h.
As to `Clc1cc(Cl)c(-c2cc(Cl)c(Cl)cc2Cl)cc1Cl` [2,2',4,4',5,5'-Hexachlorobiphenyl], the CC50 at 24 h was > 40 µM.

Staying with this data set, now noted: rat, gh3-tre-luc cells, AC50 (uM) modified / 1000, Tox21_110001=Tox21_300725; viability, 1 nM T3 present, 24 h.
For `OCC(c1ccc(Cl)cc1)c1ccc(Cl)cc1` [2,2-Bis(4-chlorophenyl)ethanol], the cytotoxic concentration (CC50) at 24 h was > 90 µM.

Still in this data set, the particulars now being: rat, gh3-tre-luc cells, AC50 (uM) modified / 1000, Tox21_110001=Tox21_301414; viability, 1 nM T3 present, 24 h.
Take `CCC(C)(C#N)N=NC(C)(C#N)CC` (stereo not shown) [2,2'-Azobis(2-methylbutanenitrile)]: the CC50 at 24 h is > 90 µM.

The data set is the same for the next values; noted with them: rat, gh3-tre-luc cells, AC50 (uM) modified / 1000, Tox21_110001=Tox21_301758; viability, 1 nM T3 present, 24 h.
As for `OCCSCSCCO` [2,2'-(Methanediyldisulfanediyl)diethanol], the 50% cytotoxic concentration (CC50) at 24 h is > 90 µM.
